Assay: in vitro
Settings: human, hela cells, % viability

Compound	viability at 28.5 h, 10 µM
COC(=O)c1sccc1NC(=O)/C=C/c1ccccc1 [CBK057041]	115%
COCCn1c(CN2Cc3ccc(Cl)cc3C2=O)nnc1[C@H]1C[C@@H](N)C1 [CBK307289]	102%
O=C(Nc1ccccc1)[C@H]1O[C@H](CCN2CCN(c3ccccc3)CC2)CC[C@@H]1O [CBK288725]	84.1%
COc1cc(-c2ccc(/N=C/c3ccccc3O)c(OC)c2)ccc1/N=C/c1ccccc1O [CBK261089]	101%
CCOC(=O)CC(=O)CSc1nc(-c2cccnc2)ccc1C#N [CBK267456]	89.6%
CNS(=O)(=O)CCNC(=O)N1CCCN(Cc2ccc(F)cc2)CC1 [CBK304658]	88.8%
Cc1cc(SCC2=NNC(=O)C2)c(Cl)cc1Cl [CBK067769]	92.8%
Cc1noc(C)c1NC(=O)c1cnccc1C(F)(F)F [CBK200306]	99.1%
COc1cc(S(=O)(=O)NCCc2ccccc2)c(OC)cc1C [CBK269868]	94.1%
COc1ncc(-c2cncc(N3CCCN(C)CC3)n2)c(OC)n1 [CBK065286]	104%
O=S(=O)(Nc1nccnc1-c1ccc2c(c1)OCO2)c1ccc(Cl)cc1 [CBK050952]	92.4%
N#Cc1ccccc1N1CCN(c2cncc(-c3ccc(F)cc3F)n2)CC1 [CBK065708]	102%
CCCOc1ccccc1-c1nnc(SCCC(=O)O)[nH]1 [CBK267182]	93.9%
O=C(C1=C(O)C(=O)N(c2ncccn2)C1c1cccc([N+](=O)[O-])c1)c1ccc(F)cc1 (centres unmarked) [CBK264932]	85.2%
O=C(O)c1cccc(-n2ncc(-c3ccsc3)n2)c1 [CBK112859]	100%
O=S(=O)(c1ccccc1)c1cncc(N2CCNCC2)n1 [CBK051078C]	89.3%
O=C1CC(c2ccccc2)=NN1c1nc(-c2ccccc2)cc(-c2ccc(F)cc2)n1 [CBK261717]	92.4%
COc1cccc([C@H]2CN(C(=O)c3ccccc3)[C@@H]3CCN(Cc4ccccc4C)C[C@H]23)c1 [CBK285610]	98.6%
O=C1NC[C@@H](Cc2ccccc2)NC(=O)C2(C/C=C/COc3ccccc31)CCN(C(=O)CN1CCCC1)CC2 [CBK292184]	103%
Cc1nc(CCCn2cnc3ncccc3c2=O)sc1C [CBK306953]	106%
CN(C)CCCn1cnc2c1c(=O)[nH]c(=O)n2C [CBK287913]	92.2%
COc1ccc2c(c1)c(C(C(=O)O)N1CCN(c3ccccn3)CC1)cn2CC(=O)O (centres unmarked) [CBK286637]	98%

Compound	viability at 28.5 h, 10 µM
Nc1ncc(-c2cccc3cccnc23)nc1NC1CCCCC1 [CBK063613]	107%
CC(C)c1ccc(/C=C/C(=O)NCCC(N)=O)cc1 [CBK149646]	81.9%
Cc1ccc(SCCN2CCN(C)CC2)cc1 [CBK269631C]	89.2%
CC(=O)c1ccc(NC(=O)NC[C@H]2C[C@@H]3CC[N@]2C[C@@H]3CN2CCN(C)CC2)cc1 [CBK288768]	116%
CCn1c2ccccc2n2c(SCCC(=O)O)nnc12 [CBK267135]	102%
CN(C)CCNC(=O)Cn1c(-c2ccc(F)cc2)cc2cccnc21 [CBK284820]	97.7%
O=C1C2C3C=CC(C2C(=O)N1CCO)C1C2C(=O)N(CCO)C(=O)C2C31 (centres unmarked) [CBK263016]	101%
CC(C)(C)c1ccc(-c2nc(O)c(CC(=O)O)s2)cc1 [CBK067734]	99.6%
O=C(NC(CN1CCOCC1)c1ccccc1)c1cnc(-c2ccc(Cl)cc2)c(-c2ccncc2)c1 (centres unmarked) [CBK037604]	100%
Cc1ccc(C(=O)C(C)OC(=O)c2ccc(NC(=O)c3ccccc3)cc2)cc1 (centres unmarked) [CBK264302]	100%
Oc1nnc(-c2ccc(Cl)c(Cl)c2)n1C1CCCCC1 [CBK074888]	97.9%
C[C@H]1[C@@H]2[C@@H](O)C([C@H](C)C(=O)N3CCCCC3)CC[C@@]2(C)CC[C@@H]1NC(=O)C1CC1 (some centres unmarked) [CBK289446]	106%
CCOC(=O)c1cc(C)sc1NC(=O)CCC(=O)O [CBK265412]	108%
CCOc1ccc(-n2c(SCc3nc4ccccc4[nH]3)nc3sc4c(c3c2=O)CCCC4)cc1 [CBK264581]	103%
Cc1ccc(-c2ccc(CCC(=O)O)n2N=C(N)S)cc1 [CBK265870]	91%
CCN1CCC2(CC1)CN(CC(N)=O)c1ccccc12 [CBK126798]	80.4%
CCN(CC)C(=O)CN1CCN(c2nccnc2Oc2ccc(F)cc2)CC1 [CBK083020T]	87.9%
Cc1cc(C)n(CC(=O)Nc2ccccc2-n2ccnc2)n1 [CBK283079]	101%
COc1ccc2[nH]cc(CCNC(=O)Cc3ccsc3)c2c1 [CBK116205]	91.3%
O=C(COc1ccccc1)NC1C(=O)N2C(C(=O)O)=C(Cl)CSC12 (centres unmarked) [CBK266903]	92.7%
COC(=O)c1c(NC(=O)C2CC(=O)NN2C)sc2c1CCC2 (centres unmarked) [CBK269218A]	89.2%
COc1ccc(C2(NCc3cn(CC(N)=O)c4ccccc34)CC2)cc1 [CBK282833]	107%

Compound	viability at 28.5 h, 10 µM
CCCCC(CC)C(=O)N1CCN(c2ccc(OC)cc2)CC1 (centres unmarked) [CBK091414]	99.9%
COCC(=O)N1CCN2C(=O)N(Cc3ccccc3)C(=O)[C@H]2C1 [CBK289641]	91.4%
O=C(CSc1nnc(Nc2ccccc2)n1-c1ccccc1)Nc1ccc2c(c1)COC2=O [CBK268298]	105%
CC(=O)Nc1ccc(-c2ccc(COC3CCN(C(=O)Cc4ccc(C#N)cc4)CC3)cc2)cc1 [CBK149225]	91.7%
Cc1ccc2[nH]c3c(c2c1)CCNC31CCN(CC2CCCCO2)CC1 (centres unmarked) [CBK039545]	103%
O=C1CC(c2ccccc2)CC(NCc2ccc3c(c2)OCO3)=C1C(=S)Nc1ccccc1 (centres unmarked) [CBK264890]	94.4%
Cc1nn(Cc2c(F)cccc2Cl)c(C)c1NC(=S)Nc1ccc(S(N)(=O)=O)cc1 [CBK267121]	101%
O=C(Nc1cc2ccccc2c(Br)n1)c1ccc(C(F)(F)F)cc1[N+](=O)[O-] [CBK063299]	92.5%
NC(=O)CN1CCC(C(=O)c2ccc(F)cc2)CC1 [CBK149130]	96.6%
Cc1c(C(=O)O)sc2nc(C=Cc3cc([N+](=O)[O-])ccc3Cl)[nH]c(=O)c12 [CBK295613]	121%
C#CCNC(=O)[C@@H]1Cc2cn(Cc3nccn3C)c3cccc(c23)[C@H](CC(C)C)N1 [CBK289424]	108%
CC(C)NC(=S)N1CC[C@@]2(NC(N)=O)N=C(N)O[C@H]2C1 [CBK010049]	93.1%
CC(=O)c1cccc(-c2cnc(Nc3ccc(N4CCOCC4)cc3)c3nccn23)c1 [CBK091217]	91.5%
Cc1cc2c(s1)c1cnn(CC(=O)N(C)C)c(=O)c1n2C [CBK284231]	99.5%
COC(=O)c1ccc(SCc2nc(N3CCOCC3)c3c(c2C#N)CC(C)(C)OC3)o1 [CBK019077]	114%
CC(=O)N1CCC2(CC1)NC(=O)N(c1ccc(C(=O)O)cc1)N2 [CBK286758]	103%
COc1ccc2[nH]cc(CCNC(=O)COc3ccc(O)cc3)c2c1 [CBK116227]	82%
O=C(c1cc[nH]n1)N1CCCC(c2cc3ccccc3cn2)C1 (centres unmarked) [CBK284921]	85.2%
Cc1cccc(-c2nc(CN(C)CC(=O)NC(C)C)no2)c1 [CBK305109]	115%
CCN1CCN(C(=O)c2cc(C)[nH]n2)CC1 [CBK200377]	108%
O=C1CCC[C@]2(CN(Cc3ccccc3)C[C@H]2c2ccncc2)N1 [CBK283348]	84.5%
CCCn1c(CN2CCOCC2)nc2ccccc21 [CBK287784]	99.1%

Compound	viability at 28.5 h, 10 µM
COC(=O)c1c(NC(=O)CC2Nc3ccccc3NC2=O)sc2c1CCC(C(C)(C)C)C2 (centres unmarked) [CBK265614]	98.1%
CCc1nc(C(C)NCC(=O)Nc2cc(C)nn2C)cs1 (centres unmarked) [CBK305118]	97.8%
O=C(CC1NC(=O)NC1=O)Nc1cccc2ccccc12 (centres unmarked) [CBK267164]	90.3%
CN1CCCC1CNCc1cn(-c2ccccc2)nc1-c1cccnc1 (centres unmarked) [CBK304490]	118%
O=C(/C=C/c1ccccc1)N/C(=C/c1ccccc1)C(=O)Nc1ccc2ccccc2c1 [CBK265023]	89.6%
CN(C)C(=O)C1(Cc2ccc(-c3cccs3)cc2)CCN(C(=O)c2ccccc2)CC1 [CBK286270]	85.5%
O=C(OCc1ccccc1)N1CCC(C2OCc3cc(-c4ccc(C(=O)N5CCCCC5)cc4)ccc3O2)CC1 (centres unmarked) [CBK153262]	93.8%
Cc1nc2c(c(=O)[nH]1)CC[C@@H]1CN(C(=O)c3ccccc3F)C[C@H]21 [CBK284410]	92.7%
Cc1cnc(NCC2(CO)CCOCC2)nc1N(C)C [CBK307026]	104%
O=C(NCCC(c1ccccc1)c1ccco1)C1CCCN1 (centres unmarked) [CBK282499]	85%
Cn1c(=O)c2c(nc(CN3CCOCC3)n2CCc2ccccc2)n(C)c1=O [CBK269264]	89.3%
CCn1c2ccccc2c2cc(CN3CCN(c4ccccc4OC)CC3)ccc21 [CBK261579]	85.4%
COc1cc(NC(=S)P(=O)(c2ccccc2)c2ccccc2)c(OC)cc1Cl [CBK021976]	95.6%
O=C(O)c1cccc(-n2cc(-c3cccc(C(F)(F)F)c3)nn2)c1 [CBK112949]	114%
CCOC(=O)c1nc2c(n1C)[C@H]1[C@H](O)[C@H](O)C[C@H]1C1(CCC1)N2 [CBK303241]	107%
COc1ccc([C@@]23CCC(CC(=O)O)C[C@@H]2N(C)CC3)cc1OC (some centres unmarked) [CBK045765A]	107%
CC1CCCCN1CC(=O)N(C)C(C)COc1ccc(Cl)cc1 (centres unmarked) [CBK023201]	87.8%
C=Cn1cc(CN2CCCC(c3cc4cccnc4[nH]3)C2)c(C)n1 (centres unmarked) [CBK284944]	115%
C[C@]12CN(Cc3cccs3)C[C@H]1C(=O)Nc1ccccc1C(=O)N2 [CBK284705]	98.2%

Same assay, conditions: human, hela cells, % viability, bulk resorufin, single well

Compound	viability at 28.5 h, 10 µM
C=CCN1C(=O)/C(=C/c2cc(Cl)c(OCc3cccc(C(=O)O)c3)c(OC)c2)C(=O)NC1=S [CBK264877G]	121%

— PMC12040169 (PLOS Biology, 2025)
